# From patent US12145944B2, “Imidazopyrimidines as EED inhibitors and the use thereof” (THE REGENTS OF THE UNIVERSITY OF MICHIGAN, priority 2019, dated 2024)
# Like-named read-outs stand apart in the source and are kept apart here.
# Tests used:
# [1] = test system: KARPAS422 human B cell lymphoma cell; experiment: Cell proliferation, KARPAS422, 7 day treatment (WST-8); type: cell-based; details: Homo sapiens, KARPAS-422, 168 h
# Summary of the method: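 Read-out was WST-8 absorbance at 450 nm after 1-4 h with reagent, taken after 7-day compound treatment (serial dilutions, 37 °C, 5% CO2) of 2 000-3 000 KARPAS422 cells per well. IC50 fitted by nonlinear regression on DMSO-normalized values.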
# [2] = test system: Pfeiffer cell line; experiment: Anti-proliferative activity, Pfeiffer cell line, 7 day treatment; type: cell-based; details: Homo sapiens, 168 h
# Summary of the method: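 Cells seeded at 2 000-3 000 per well were treated with serially diluted compounds for 7 days at 37° C, 5% CO2. Growth was measured by WST-8 assay read at 450 nm after 1-4 h reagent incubation. Readings were normalized to DMSO-treated cells and IC50 values derived by nonlinear regression.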
# [3] = anti-proliferative IC50, Karpas 422 cell line, 7 day treatment, read-out: Karpas Cell line
# [4] = anti-proliferative IC50, Pfeiffer cell line, 7 day treatment, read-out: Pfeiffer Cell line
# [5] = read-out: Karpas Cell line (nM)
# [6] = Pfeiffer, read-out: Pfeiffer Cell line (nM)
Structure (SMILES),"IC50 [1, 3]","IC50 [2, 4]","IC50 [1, 5]","IC50 [2, 6]"
"CN1CCC(CN2Cc3cc(C(F)(F)F)ncc3-c3cnc(NCc4c(F)ccc5c4CCO5)n4cnc(c34)C2=O)CC1 [compound 38, 12-(((5-fluoro-2,3-dihydrobenzofuran-4-yl)methyl)amino)-4-((1-methylpiperidin-4-yl)methyl)-7-(trifluoromethyl)-4,5-dihydro-3H-2,4,8,11,12a-pentaazabenzo[4,5]cycloocta[1,2,3-cd]inden-3-one]",15.7 nM,3.22 nM,,
"CN1Cc2ccc(C(F)(F)F)nc2-c2cnc(NCc3c(F)ccc4c3CCO4)n3cnc(c23)C1=O [compound 39, 12-(((5-fluoro-2,3-dihydrobenzofuran-4-yl)methyl)amino)-4-methyl-8-(trifluoromethyl)-4,5-dihydro-3H-2,4,9,11,12a-pentaazabenzo[4,5]cycloocta[1,2,3-cd]inden-3-one]",> 100 nM,22.7 nM,,
"O=C1c2ncn3c(NCc4c(F)ccc5c4CCO5)ncc(c23)-c2nc(C(F)(F)F)ccc2CN1CC1COCCO1 (centres unmarked) [compound 40, 4-((1,4-dioxan-2-yl)methyl)-12-(((5-fluoro-2,3-dihydrobenzofuran-4-yl)methyl)amino)-8-(trifluoromethyl)-4,5-dihydro-3H-2,4,9,11,12a-pentaazabenzo[4,5]cycloocta[1,2,3-cd]inden-3-one]",> 100 nM,38.8 nM,,
"CN1CCC(CN2Cc3nc(C(F)(F)F)ccc3-c3cnc(NCc4c(F)ccc5c4CCO5)n4cnc(c34)C2=O)CC1 [compound 42, 12-(((5-fluoro-2,3-dihydrobenzofuran-4-yl)methyl)amino)-4-((1-methylpiperidin-4-yl)methyl)-7-(trifluoromethyl)-4,5-dihydro-3H-2,4,6,11,12a-pentaazabenzo[4,5]cycloocta[1,2,3-cd]inden-3-one]",4.01 nM,4.19 nM,,
"O=C1c2ncn3c(NCc4c(F)ccc5c4CCO5)ncc(c23)-c2cnc(C(F)(F)F)cc2CN1CC1(O)CC1 [compound 43, 12-(((5-fluoro-2,3-dihydrobenzofuran-4-yl)methyl)amino)-4-((1-hydroxycyclopropyl)methyl)-7-(trifluoromethyl)-4,5-dihydro-3H-2,4,8,11,12a-pentaazabenzo[4,5]cycloocta[1,2,3-cd]inden-3-one]",5.46 nM,1.05 nM,,
"O=C1c2ncn3c(NCc4c(F)ccc5c4CCO5)ncc(c23)-c2cnc(C(F)(F)F)cc2CN1CC1CCOCC1 [compound 45, 12-(((5-fluoro-2,3-dihydrobenzofuran-4-yl)methyl)amino)-4-((tetrahydro-2H-pyran-4-yl)methyl)-7-(trifluoromethyl)-4,5-dihydro-3H-2,4,8,11,12a-pentaazabenzo[4,5]cycloocta[1,2,3-cd]inden-3-one]",6.15 nM,0.61 nM,,
"O=C1c2ncn3c(NCc4c(F)ccc5c4CCO5)ncc(c23)-c2ccc(C(F)(F)F)cc2CN1CC(F)(F)F [compound 83, 12-(((5-fluoro-2,3-dihydrobenzofuran-4-yl)methyl)amino)-4-(2,2,2-trifluoroethyl)-7-(trifluoromethyl)-4,5-dihydro-3H-2,4,11,12a-tetraazabenzo[4,5]cycloocta[1,2,3-cd]inden-3-one]",6.32 nM,0.304 nM,,
"O=C1c2ncn3c(NCc4c(F)ccc5c4CCO5)ncc(c23)-c2ccsc2CN1C1CC1 [compound 88, 4-cyclopropyl-11-(((5-fluoro-2,3-dihydrobenzofuran-4-yl)methyl)amino)-4,5-dihydro-3H-6-thia-2,4,10,11a-tetraazacyclopenta[4,5]cycloocta[1,2,3-cd]inden-3-one]",25.7 nM,0.035 nM,,
"O=C1c2ncn3c(NCc4c(F)ccc5c4CCO5)ncc(c23)-c2sc(C(F)(F)F)nc2CN1C1CC1 [compound 91, 4-cyclopropyl-11-(((5-fluoro-2,3-dihydrobenzofuran-4-yl)methyl)amino)-7-(trifluoromethyl)-4,5-dihydro-3H-8-thia-2,4,6,10,11a-pentaazacyclopenta[4,5]cycloocta[1,2,3-cd]inden-3-one]",5.23 nM,0.043 nM,,
"CC1CC(N2Cc3cc(C(F)(F)F)ccc3-c3cnc(NCc4c(F)ccc5c4CCO5)n4cnc(c34)C2=O)CC(C)O1 (centres unmarked) [compound 93, 4-(2,6-dimethyltetrahydro-2H-pyran-4-yl)-12-(((5-fluoro-2,3-dihydrobenzofuran-4-yl)methyl)amino)-7-(trifluoromethyl)-4,5-dihydro-3H-2,4,11,12a-tetraazabenzo [4,5]cycloocta[1,2,3-cd]inden-3-one]",3.71 nM,0.55 nM,,
"O=S1(=O)Cc2ncccc2-c2cnc(NCc3c(F)ccc4c3CCO4)n3cnc1c23 [compound 94, 11-(((5-fluoro-2,3-dihydrobenzofuran-4-yl)methyl)amino)-4H-3-thia-2,5,10,11a-tetraazadibenzo[cd,f]azulene 3,3-dioxide]",13.9 nM,0.2 nM,,
"O=S1(=O)CCc2cc(F)ccc2-c2cnc(NCc3c(F)ccc4c3CCO4)n3cnc1c23 [compound 96, 7-fluoro-12-(((5-fluoro-2,3-dihydrobenzofuran-4-yl)methyl)amino)-4,5-dihydro-3-thia-2,11,12a-triazabenzo[4,5]cycloocta[1,2,3-cd]indene 3,3-dioxide]",21.2 nM,0.056 nM,,
"CS(=O)(=O)c1ccc(-c2cnc(NCc3c(F)ccc4c3CCO4)n3cnc(S(C)(=O)=O)c23)cc1 [compound 100, N-((5-fluoro-2,3-dihydrobenzofuran-4-yl)methyl)-1-(methylsulfonyl)-8-(4 (methylsulfonyl)phenyl)imidazo[1,5-c]pyrimidin-5-amine]",,,0.26 nM,1.05 nM
"Cc1ncccc1-c1cnc(NCc2c(F)ccc3c2CCO3)n2cnc(S(C)(=O)=O)c12 [compound 101, N-((5-fluoro-2,3-dihydrobenzofuran-4-yl)methyl)-8-(2-methylpyridin-3-yl)-1-(methylsulfonyl)imidazo[1,5-c]pyrimidin-5-amine]",,,5.59 nM,1.76 nM

# More lines, main results first:
"IC50 [1, 3]","IC50 [2, 4]","IC50 [1, 5]",Structure (SMILES),"IC50 [2, 6]"
1.69 nM,1.03 nM,,"O=C1c2ncn3c(NCc4c(F)ccc5c4CCO5)ncc(c23)-c2ccc(C(F)(F)F)nc2CN1C1CC1 [compound 41, 4-cyclopropyl-12-(((5-fluoro-2,3-dihydrobenzofuran-4-yl)methyl)amino)-7-(trifluoromethyl)-4,5-dihydro-3H-2,4,6,11,12a-pentaazabenzo[4,5]cycloocta[1,2,3-cd]inden-3-one]",
2.44 nM,1.03 nM,,"O=C1c2ncn3c(NCc4c(F)ccc5c4CCO5)ncc(c23)-c2ccc(C(F)(F)F)nc2CN1CC1(O)CC1 [compound 44, 12-(((5-fluoro-2,3-dihydrobenzofuran-4-yl)methyl)amino)-4-((1-hydroxycyclopropyl)methyl)-7-(trifluoromethyl)-4,5-dihydro-3H-2,4,6,11,12a-pentaazabenzo[4,5]cycloocta[1,2,3-cd]inden-3-one]",
3.51 nM,0.074 nM,,"CC(F)(F)CN1Cc2cc(C(F)(F)F)ncc2-c2cnc(NCc3c(F)ccc4c3CCO4)n3cnc(c23)C1=O [compound 82, 4-(2,2-difluoropropyl)-12-(((5-fluoro-2,3-dihydrobenzofuran-4-yl)methyl)amino)-7-(trifluoromethyl)-4,5-dihydro-3H-2,4,8,11,12a-pentaazabenzo[4,5]cycloocta[1,2,3-cd]inden-3-one]",
1.48 nM,0.048 nM,,"O=C1c2ncn3c(NCc4c(F)ccc5c4CCO5)ncc(c23)-c2cnc(C(F)(F)F)cc2CN1CC(F)(F)F [compound 84, 12-(((5-fluoro-2,3-dihydrobenzofuran-4-yl)methyl)amino)-4-(2,2,2-trifluoroethyl)-7-(trifluoromethyl)-4,5-dihydro-3H-2,4,8,11,12a-pentaazabenzo[4,5]cycloocta[1,2,3-cd]inden-3-one]",
2.71 nM,0.13 nM,,"O=C1c2ncn3c(NCc4c(F)ccc5c4CCO5)ncc(c23)-c2cnc(C(F)(F)F)cc2CN1C1CC(F)(F)C1 [compound 85, 4-(3,3-difluorocyclobutyl)-12-(((5-fluoro-2,3-dihydrobenzofuran-4-yl)methyl)amino)-7-(trifluoromethyl)-4,5-dihydro-3H-2,4,8,11,12a-pentaazabenzo[4,5]cycloocta[1,2,3-cd]inden-3-one]",
2.29 nM,0.021 nM,,"Cc1nc2c(s1)-c1cnc(NCc3c(F)ccc4c3CCO4)n3cnc(c13)C(=O)N(C1CC1)C2 [compound 86, 4-cyclopropyl-11-(((5-fluoro-2,3-dihydrobenzofuran-4-yl)methyl)amino)-7-methyl-4,5-dihydro-3H-8-thia-2,4,6,10,11a-pentaazacyclopenta[4,5]cycloocta[1,2,3-cd]inden-3-one]",
0.078 nM,0.044 nM,,"CCN1Cc2cc(C(F)(F)F)ncc2-c2cnc(NCc3c(F)ccc4c3CCO4)n3cnc(c23)C1=O [compound 90, 4-ethyl-12-(((5-fluoro-2,3-dihydrobenzofuran-4-yl)methyl)amino)-7-(trifluoromethyl)-4,5-dihydro-3H-2,4,8,11,12a-pentaazabenzo[4,5]cycloocta[1,2,3-cd]inden-3-one]",
1.85 nM,0.058 nM,,"Cc1ccc2c(n1)CCS(=O)(=O)c1ncn3c(NCc4c(F)ccc5c4CCO5)ncc-2c13 [compound 97, 12-(((5-fluoro-2,3-dihydrobenzofuran-4-yl)methyl)amino)-7-methyl-4,5-dihydro-3-thia-2,6,11,12a-tetraazabenzo[4,5]cycloocta[1,2,3-cd]indene 3,3-dioxide]",
